Measurements: PubChem BioAssay AID248 (DTP/NCI, 2004)
Inconclusive results and toxic doses are left out. Cut-off read from the data, not from the text of the source: active = T/C of 150% or more; inactive = T/C below 125%. Square brackets hold non-standard residues; d marks the D form. Peptide text beside a SMILES is read from it. * marks the point of attachment. Tos = Cc1ccc(S(=O)(=O)*)cc1; ΔPro = O=C(O)[CH]1C=CCN1

Test system: L1210 leukemia ip in BDF1 mice, survival T/C
Experiment: NCI In Vivo Anticancer Drug Screen. Data for tumor model L1210 Leukemia (intraperitoneal) in B6D2F1 (BDF1) mice
Conditions: endpoint: mean survival time, higher = longer survival
Method in brief: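 In this screen, tumor-bearing mice given compound are compared to those given vehicle, and their survival values are reported as a treated-to-control quotient.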

[1] = dose: 100.0 mg/kg/injection, schedule: Q04DX003 (ip), vehicle: saline with Tween-80
[2] = dose: 200.0 mg/kg/injection, schedule: Q04DX003 (ip), vehicle: saline with Tween-80
[3] = dose: 400.0 mg/kg/injection, schedule: Q04DX003 (ip), vehicle: saline with Tween-80
[4] = dose: 100.0 mg/kg/injection, schedule: Q01DX009 (ip), vehicle: Klucel (hydroxypropylcellulose) (HPC)
[5] = dose: 200.0 mg/kg/injection, schedule: Q01DX009 (ip), vehicle: Klucel (hydroxypropylcellulose) (HPC)
[6] = dose: 400.0 mg/kg/injection, schedule: Q01DX009 (ip), vehicle: Klucel (hydroxypropylcellulose) (HPC)
[7] = dose: 100.0 mg/kg/injection, schedule: Q01DX009 (ip), vehicle: saline with Tween-80
[8] = dose: 200.0 mg/kg/injection, schedule: Q01DX009 (ip), vehicle: saline with Tween-80
[9] = dose: 50.0 mg/kg/injection, schedule: Q01DX009 (ip), vehicle: saline
[10] = dose: 100.0 mg/kg/injection, schedule: Q01DX009 (ip), vehicle: saline
[11] = dose: 100.0 mg/kg/injection, schedule: Q01DX001 (ip), vehicle: saline
[12] = dose: 200.0 mg/kg/injection, schedule: Q01DX001 (ip), vehicle: saline
[13] = dose: 400.0 mg/kg/injection, schedule: Q01DX001 (ip), vehicle: saline
[14] = dose: 200.0 mg/kg/injection, schedule: Q01DX009 (ip), vehicle: saline
[15] = dose: 50.0 mg/kg/injection, schedule: Q01DX009 (ip), vehicle: saline with Tween-80

Measured: T/C

CC(C)(C)C(=O)CC(=O)C(C)(C)C.CC(C)(C)C(=O)CC(=O)C(C)(C)C.CC(C)(C)C(=O)CC(=O)C(C)(C)C.[Gd]
inactive: [1] 101 % of control | [2] 101 % of control | [3] 92 % of control

CC12CCC(Cl)(CC1O)C2(C)C (stereo not given)
inactive: dose: 75.0 mg/kg/injection, schedule: Q01DX001 (ip), vehicle: saline 102 % of control | dose: 150.0 mg/kg/injection, schedule: Q01DX001 (ip), vehicle: saline 97 % of control

COc1ccc(/C=N/Nc2c([N+](=O)[O-])cc(C)cc2[N+](=O)[O-])cc1
inactive: [4] 102 % of control | [5] 100 % of control | [6] 100 % of control

C1=C(COC(c2ccccc2)(c2ccccc2)c2ccccc2)CCCC1
inactive: dose: 100.0 mg/kg/injection, schedule: Q01DX001 (ip), vehicle: carboxymethylcellulose (CMC) 87 % of control | dose: 400.0 mg/kg/injection, schedule: Q01DX001 (ip), vehicle: carboxymethylcellulose (CMC) 87 % of control

CC(C)c1ccc([N+](=O)[O-])cc1
inactive: [7] 96 % of control | [8] 106 % of control

CCCCCCCCCCCCCCCC[N+](C)=C(SC)c1ccccc1OC
inactive: dose: 0.7 mg/kg/injection, schedule: Q01DX009 (ip), vehicle: Klucel (hydroxypropylcellulose) (HPC) 101 % of control | dose: 1.5 mg/kg/injection, schedule: Q01DX009 (ip), vehicle: Klucel (hydroxypropylcellulose) (HPC) 104 % of control | dose: 1.5 mg/kg/injection, schedule: Q04DX003 (ip), vehicle: Klucel (hydroxypropylcellulose) (HPC) 95 % of control | dose: 3.0 mg/kg/injection, schedule: Q01DX009 (ip), vehicle: Klucel (hydroxypropylcellulose) (HPC) 104 % of control | dose: 3.0 mg/kg/injection, schedule: Q04DX003 (ip), vehicle: Klucel (hydroxypropylcellulose) (HPC) 97 % of control

C#CC(O)(/C=C\Cl)CC (stereo not given)
inactive: dose: 12.5 mg/kg/injection, schedule: Q01DX009 (ip), vehicle: saline 102 % of control | dose: 25.0 mg/kg/injection, schedule: Q01DX009 (ip), vehicle: saline 93 % of control | dose: 25.0 mg/kg/injection, schedule: Q04DX003 (ip), vehicle: saline 101 % of control | [9] 94 % of control | dose: 50.0 mg/kg/injection, schedule: Q04DX003 (ip), vehicle: saline 95 % of control | [10] 86 % of control | dose: 100.0 mg/kg/injection, schedule: Q04DX003 (ip), vehicle: saline 97 % of control | dose: 200.0 mg/kg/injection, schedule: Q04DX003 (ip), vehicle: saline 106 % of control

OC1(c2ccccc2)CCN(C/C=C/c2ccccc2Cl)CC1
inactive: [1] 92 % of control | [2] 93 % of control | [3] 90 % of control

c1ccc(-c2oc(-c3ccccc3)c(-c3ccccc3)c2-c2ccccc2)cc1
inactive: [1] 93 % of control | [3] 93 % of control

SCc1ccccn1
inactive: dose: 30.0 mg/kg/injection, schedule: Q01DX015 (ip), vehicle: saline 103 % of control | dose: 60.0 mg/kg/injection, schedule: Q01DX015 (ip), vehicle: saline 94 % of control | [11] 107 % of control | dose: 120.0 mg/kg/injection, schedule: Q01DX015 (ip), vehicle: saline 120 % of control | [12] 107 % of control | dose: 240.0 mg/kg/injection, schedule: Q01DX015 (ip), vehicle: saline 111 % of control | [13] 107 % of control | dose: 400.0 mg/kg/injection, schedule: Q01DX015 (ip), vehicle: saline 90 % of control

CCCCCCCCCCCCSc1nccnc1C
inactive: dose: 50.0 mg/kg/injection, schedule: Q01DX009 (ip), vehicle: Klucel (hydroxypropylcellulose) (HPC) 113 % of control | [4] 106 % of control | [5] 92 % of control

COc1cccc(NC(=S)NNC(=S)NNc2ccccc2)c1
inactive: [4] 108 % of control | [5] 100 % of control | [6] 100 % of control

Cn1c(=O)c2[nH]c(-c3ccc4c(c3)OCO4)nc2n(C)c1=O
inactive: dose: 50.0 mg/kg/injection, schedule: Q01DX001 (ip), vehicle: other 95 % of control | dose: 100.0 mg/kg/injection, schedule: Q01DX001 (ip), vehicle: other 97 % of control | dose: 200.0 mg/kg/injection, schedule: Q01DX001 (ip), vehicle: other 95 % of control | dose: 400.0 mg/kg/injection, schedule: Q01DX001 (ip), vehicle: other 86 % of control

COC(=O)C1C=CCN1C(=O)C(Cc1ccccc1)NS(=O)(=O)c1ccc(C)cc1 (stereo not drawn) (Tos-Phe-[ΔPro]-OMe; configuration not given here)
inactive: dose: 50.0 mg/kg/injection, schedule: Q01DX005 (ip), vehicle: saline 96 % of control | dose: 100.0 mg/kg/injection, schedule: Q01DX005 (ip), vehicle: saline 107 % of control | dose: 200.0 mg/kg/injection, schedule: Q01DX005 (ip), vehicle: saline 105 % of control

COC1C(N)C(O)OC(CO)C1O (stereo not given)
inactive: [11] 99 % of control | [12] 103 % of control | [13] 94 % of control

COC1OC(COC(=O)c2ccc([N+](=O)[O-])cc2)C(OCc2ccccc2)C1OC(=O)c1ccc([N+](=O)[O-])cc1 (stereo not given)
inactive: dose: 50.0 mg/kg/injection, schedule: Q01DX001 (ip), vehicle: saline 113 % of control | [11] 105 % of control | [12] 116 % of control | [13] 105 % of control

Clc1ccc(CSSCc2ccc(Cl)cc2)cc1
inactive: dose: 100.0 mg/kg/injection, schedule: Q04DX002 (ip), vehicle: Klucel (hydroxypropylcellulose) (HPC) 95 % of control | dose: 200.0 mg/kg/injection, schedule: Q04DX002 (ip), vehicle: Klucel (hydroxypropylcellulose) (HPC) 110 % of control | dose: 400.0 mg/kg/injection, schedule: Q04DX002 (ip), vehicle: Klucel (hydroxypropylcellulose) (HPC) 100 % of control

COc1ccc(OC)c(/C=C/C(=O)n2cnc3c(N)ncnc32)c1
inactive: [1] 93 % of control | [2] 93 % of control | [3] 88 % of control

[N-]=[N+]=Nc1ccc(-c2nc(N)nc(N)n2)cc1
inactive: [9] 90 % of control | [10] 90 % of control | dose: 100.0 mg/kg/injection, schedule: Q04DX003 (ip), vehicle: acetone 100 % of control | [14] 98 % of control | dose: 200.0 mg/kg/injection, schedule: Q04DX003 (ip), vehicle: acetone 97 % of control | dose: 400.0 mg/kg/injection, schedule: Q04DX003 (ip), vehicle: acetone 90 % of control

CC1(CBr)OCCCO1
inactive: dose: 25.0 mg/kg/injection, schedule: Q01DX009 (ip), vehicle: saline with Tween-80 96 % of control | dose: 25.0 mg/kg/injection, schedule: Q04DX002 (ip), vehicle: saline 93 % of control | [15] 103 % of control | dose: 50.0 mg/kg/injection, schedule: Q04DX002 (ip), vehicle: saline 93 % of control | [7] 103 % of control | dose: 100.0 mg/kg/injection, schedule: Q04DX002 (ip), vehicle: saline with Tween-80 95 % of control | dose: 100.0 mg/kg/injection, schedule: Q04DX002 (ip), vehicle: saline 93 % of control

CCOc1ccc([N+](=O)[O-])cc1C1N(Cc2ccc(OC)cc2)CCCN1Cc1ccc(OC)cc1
inactive: dose: 100.0 mg/kg/injection, schedule: Q01DX001 (ip), vehicle: acetone 100 % of control | dose: 200.0 mg/kg/injection, schedule: Q01DX001 (ip), vehicle: acetone 94 % of control | dose: 400.0 mg/kg/injection, schedule: Q01DX001 (ip), vehicle: acetone 94 % of control

Nc1ccccc1O
inactive: dose: 12.5 mg/kg/injection, schedule: Q04DX003 (ip), vehicle: Klucel (hydroxypropylcellulose) (HPC) 100 % of control | dose: 25.0 mg/kg/injection, schedule: Q04DX003 (ip), vehicle: Klucel (hydroxypropylcellulose) (HPC) 100 % of control | dose: 50.0 mg/kg/injection, schedule: Q04DX003 (ip), vehicle: Klucel (hydroxypropylcellulose) (HPC) 92 % of control | [10] 110 % of control | [14] 105 % of control | dose: 400.0 mg/kg/injection, schedule: Q01DX009 (ip), vehicle: saline 108 % of control | dose: 600.0 mg/kg/injection, schedule: Q01DX009 (ip), vehicle: saline 92 % of control

CCC/C=C/C(O)C1CCCCC1 (stereo not given)
inactive: [15] 92 % of control | [7] 95 % of control | [8] 95 % of control
